In patent publication US9370519B2, “Macrocyclic FLT3 kinase inhibitors” (Oncodesign S.A., priority 2011, dated 2016):
pIC50: −log10 of the molar value.

Columns and labels:
[1] = biological target: T1, Flt3 (h) (Homo sapiens, UniProt P36888); assay: FLT3 in vitro peptide-based kinase assay, Protocol 1; assay type: biochemical
T1 sequence (P36888 27-993): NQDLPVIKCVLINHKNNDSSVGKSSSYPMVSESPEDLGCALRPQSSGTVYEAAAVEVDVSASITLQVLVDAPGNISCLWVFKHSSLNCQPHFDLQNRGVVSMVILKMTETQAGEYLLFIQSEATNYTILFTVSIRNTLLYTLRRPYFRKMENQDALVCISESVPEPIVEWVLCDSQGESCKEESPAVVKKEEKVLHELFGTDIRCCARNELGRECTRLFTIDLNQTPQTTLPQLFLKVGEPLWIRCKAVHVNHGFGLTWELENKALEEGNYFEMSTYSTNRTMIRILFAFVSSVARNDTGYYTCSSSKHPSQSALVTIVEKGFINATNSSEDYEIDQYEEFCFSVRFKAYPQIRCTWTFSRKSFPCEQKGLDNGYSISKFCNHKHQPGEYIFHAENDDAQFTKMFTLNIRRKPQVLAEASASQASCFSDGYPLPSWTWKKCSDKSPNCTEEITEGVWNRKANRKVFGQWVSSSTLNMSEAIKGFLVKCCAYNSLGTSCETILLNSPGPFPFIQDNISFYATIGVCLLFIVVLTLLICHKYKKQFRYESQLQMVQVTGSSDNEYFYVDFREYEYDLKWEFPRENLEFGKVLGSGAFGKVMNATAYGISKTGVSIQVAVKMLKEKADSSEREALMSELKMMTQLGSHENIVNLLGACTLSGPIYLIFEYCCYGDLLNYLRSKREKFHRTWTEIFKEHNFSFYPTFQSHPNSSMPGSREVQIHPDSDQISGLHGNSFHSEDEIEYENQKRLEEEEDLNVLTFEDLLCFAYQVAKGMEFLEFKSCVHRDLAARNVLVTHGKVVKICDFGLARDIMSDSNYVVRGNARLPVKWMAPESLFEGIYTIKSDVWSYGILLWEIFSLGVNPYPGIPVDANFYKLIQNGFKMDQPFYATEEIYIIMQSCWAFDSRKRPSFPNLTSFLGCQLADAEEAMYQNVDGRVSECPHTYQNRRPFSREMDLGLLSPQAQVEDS
Method: The inhibition of FLT3 kinase was assessed using FLT3 recombinant protein in an in vitro peptide-based kinase assay.
In a final reaction volume of 25 μL, Flt3 (h) (5-10 mU) is incubated with 8 mM MOPS pH 7.0, 0.2 mM EDTA, 50 μM EAIYAAPFAKKK, 10 mM MgAcetate and [g-33P-ATP] (specific activity approx. 500 cpm/pmol, concentration as required). The reaction is initiated by the addition of the MgATP mix. After incubation for 40 minutes at room temperature, the reaction is stopped by the addition of 5 μL of a 3% phosphoric acid solution. 10 μL of the reaction is then spotted onto a P30 filtermat and washed three times for 5 minutes in 75 mM phosphoric acid and once in methanol prior to drying and scintillation counting.

[2] = biological target: T2, FLT3 wt (Homo sapiens, UniProt P36888); assay: radiometric protein kinase assay (33PanQinase Activity Assay) FLT3 wt, Protocol 2; assay type: biochemical; settings: ATP 3 μM
T2 construct: purchased Invitrogen Corporation
T2 sequence (P36888 27-993): T1 sequence (P36888 27-993)
Method: A radiometric protein kinase assay (33PanQinase® Activity Assay) was used for measuring the kinase activity. All kinase assays were performed in 96-well FlashPlates™ from PerkinElmer (Boston, Mass., USA) in a 50 μl reaction volume. The reaction cocktail was pipetted in four steps in the following order: • 20 μl of assay buffer (standard buffer) • 5 μl of ATP solution (in H2O) • 5 μl of test compound (in 10% DMSO) • 10 μl of substrate/10 μl of enzyme solution (premixed)
The assay for FLT3 wt contains 70 mM HEPES-NaOH pH 7.5, 3 mM MgCl2, 3 mM MnCl2, 3 μM Na-orthovanadate, 1.2 mM DTT, ATP (3 μM), [γ-33P]-ATP (approx. 5×1005 cpm per well), protein kinase FLT3 wt (6.1 nM) and substrate (poly(Ala,Glu,Lys,Tyr)6:2:5:1), 0.125 μg/50 μl).
The kinases are obtained from Invitrogen Corporation.
The reaction cocktails were incubated at 30° C. for 60 minutes. The reaction was stopped with 50 μl of 2% (v/v) H3PO4, plates were aspirated and washed two times with 200 μl 0.9% (w/v) NaCl. Incorporation of 33Pi was determined with a microplate scintillation counter.

SMILES	pIC50 [1]	melting point	pIC50 [2]
O=C(O)c1ccc2cc1OCCOCCNc1ccn3ncc-2c3n1 [Compound 1]	> 7.00	> 300 °C	
CN1CCC(C(=O)N2CCOCCNc3ccn4ncc(c4n3)-c3cccc2c3)CC1 [Compound 2]	< 6.00	> 300 °C	
O=C1NCCCNc2ccn3ncc(c3n2)-c2cccc(c2)N1 [Compound 3]	> 7.00	> 300 °C	
NC(=O)c1ccc2cc1OCCNCCNc1ccn3ncc-2c3n1 [Compound 4]	> 7.00	> 300 °C	
c1cc2cc(c1)-c1cnn3ccc(nc13)NCCN(CCN1CCOCC1)CCO2 [Compound 5]	> 7.00	> 300 °C	
CC(C)N1CCNc2ccn3ncc(c3n2)-c2cccc(c2)OCC1 [Compound 6]	> 7.00	> 300 °C	
O=C1c2cccc(c2)-c2cnn3ccc(nc23)NCCNCCN1CCO [Compound 7]	6.00 to 7.00	271.6 °C	
O=C1NCCN(CCO)CCNc2ccn3ncc(c3n2)-c2cccc1c2 [Compound 8]	> 7.00	283.9 °C	
CN1CCNC(=O)c2cccc(c2)-c2cnn3ccc(nc23)NCC1 [Compound 9]	6.00 to 7.00	287.6 °C	
O=C(NCCCN1CCCC1)N1CCNCCOc2cccc(c2)-c2cnn3ccc1nc23 [Compound 10]	> 7.00		
CN(C)CCNC(=O)N1CCNCCOc2cccc(c2)-c2cnn3ccc1nc23 [Compound 11]	6.00 to 7.00	> 300 °C	
OCc1ccc2cc1OCCOCCNc1ccn3ncc-2c3n1 [Compound 12]	> 7.00	> 300 °C	
c1cc2cc(c1)-c1cnn3ccc(nc13)OCCN(CCCN1CCCC1)CCO2 [Compound 13]	< 6.00	> 300 °C	
O=C1NCCNCCN(CCO)c2ccn3ncc(c3n2)-c2cccc1c2 [Compound 14]	< 6.00		
O=C1NCCN(C2CC2)CCN(CCO)c2ccn3ncc(c3n2)-c2cccc1c2 [Compound 15]	6.00 to 7.00		
O=C(NCCF)c1ccc2cc1OCCOCCNc1ccn3ncc-2c3n1 [Compound 20]		> 300 °C	
O=C1CNCCNc2ccn3ncc(c3n2)-c2cccc(c2)N1 [Compound 31]			< 6.00
COc1ccc2cc1OCCNCCNc1ccn3ncc-2c3n1 [Compound 32]			6.00 to 7.00
c1cc2cc(c1)-c1cnn3ccc(nc13)NCCCNCCO2 [Compound 33]			6.00 to 7.00
O=C1CNCCNc2ccn3ncc(c3n2)-c2cccc(c2)CN1 [Compound 34]			< 6.00
Fc1cc2cc(c1)-c1cnn3ccc(nc13)NCCOCCCO2 [Compound 35]		234.9 °C	
